Experimental findings from ChEMBL document CHEMBL4339199 (ACS Med Chem Lett, 2019) are described below.

Active and inactive are the calls of the source. The rule behind the calls is not given here.

The subject of one series is Blood. In words: Inhibition of IL2-induced IFNgamma production in CD3/CD28 antibody-stimulated human whole blood measured after 18 hrs by ELISA. The format is functional, tissue-based. In general terms: In an ELISA, binding on a coated surface is turned into a signal by an enzyme label.
In series [1] the target is T1, Tyrosine-protein kinase JAK3 (Homo sapiens, UniProt P52333).
T1 sequence (P52333 whole entry): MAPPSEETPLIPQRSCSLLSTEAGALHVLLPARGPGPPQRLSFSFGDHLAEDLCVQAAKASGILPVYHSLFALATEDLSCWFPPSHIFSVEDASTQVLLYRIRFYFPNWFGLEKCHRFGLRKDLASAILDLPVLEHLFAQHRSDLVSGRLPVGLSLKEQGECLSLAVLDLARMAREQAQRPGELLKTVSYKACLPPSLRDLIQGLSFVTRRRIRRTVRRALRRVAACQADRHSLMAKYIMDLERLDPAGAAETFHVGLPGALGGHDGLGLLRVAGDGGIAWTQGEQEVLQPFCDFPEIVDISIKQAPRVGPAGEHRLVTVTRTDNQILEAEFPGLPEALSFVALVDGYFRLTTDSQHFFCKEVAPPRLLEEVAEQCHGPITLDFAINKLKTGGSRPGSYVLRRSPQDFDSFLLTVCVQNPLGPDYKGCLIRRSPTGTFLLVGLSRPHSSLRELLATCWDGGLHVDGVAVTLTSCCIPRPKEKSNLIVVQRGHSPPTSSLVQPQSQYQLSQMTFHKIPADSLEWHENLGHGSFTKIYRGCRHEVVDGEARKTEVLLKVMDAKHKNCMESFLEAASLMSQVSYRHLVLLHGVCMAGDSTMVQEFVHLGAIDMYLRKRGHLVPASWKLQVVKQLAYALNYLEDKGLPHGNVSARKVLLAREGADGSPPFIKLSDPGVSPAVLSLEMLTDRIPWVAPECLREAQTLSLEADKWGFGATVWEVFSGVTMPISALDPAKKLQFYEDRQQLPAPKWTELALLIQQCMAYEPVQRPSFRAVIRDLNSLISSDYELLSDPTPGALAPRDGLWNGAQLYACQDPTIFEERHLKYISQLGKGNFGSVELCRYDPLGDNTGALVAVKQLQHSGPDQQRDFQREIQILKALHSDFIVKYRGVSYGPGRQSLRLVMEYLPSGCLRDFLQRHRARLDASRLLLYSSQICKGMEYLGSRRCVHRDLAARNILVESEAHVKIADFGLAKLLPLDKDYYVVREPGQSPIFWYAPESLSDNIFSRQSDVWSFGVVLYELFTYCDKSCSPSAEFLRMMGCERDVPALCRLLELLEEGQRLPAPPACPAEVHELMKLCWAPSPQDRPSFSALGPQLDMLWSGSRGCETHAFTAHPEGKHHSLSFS
In words: Inhibition of GST-tagged JAK3 (unknown origin) using fluoresceinated peptide as substrate measured after 3 hrs by electrophoresis method.

For series [2], the target named is Non-receptor tyrosine-protein kinase TYK2 (Homo sapiens, UniProt P29597). In words: Inhibition of […] TYK2 (unknown origin) using fluoresceinated peptide as substrate measured after 3 hrs by electrophoresis method.
Series [3] is described as follows: Aqueous solubility of the compound. The format is physicochemical. The note with it: buffer.
A short description of series [4]: Stability in mouse microsomes assessed as parent compound remaining measured after 10 mins. The following applies: read-out: Stability. The format is ADME, Microsome.
Series [5] concerns the target Tyrosine-protein kinase JAK1 (Homo sapiens, UniProt P23458). In words: Inhibition of GST-tagged JAK1 (unknown origin) using fluoresceinated peptide as substrate measured after 3 hrs by electrophoresis method.
Series [6] deals with Tyrosine-protein kinase JAK2 (Homo sapiens, UniProt O60674). The series can be described thus: Inhibition of GST-tagged JAK2 (unknown origin) using fluoresceinated peptide as substrate measured after 3 hrs by electrophoresis method.
The next series concerns T-cell. In words: Inhibition of IL2-induced human PBMC-derived T cell proliferation preincubated for 60 mins followed by IL-2 stimulation and measured after 3 days by [3H]thymidine incorporation based topcount method. It is filed as functional. On the technique in general: Dividing cells build labelled thymidine or BrdU into new DNA.
Series [7] is described as follows: Lipophilicity, log P of the compound. The note with it: octanol/water. It is filed as physicochemical.
A short description of series [8]: AUC in mouse at 10 mg/kg, po. The format is ADME, organism-based. The note with it: in vivo.
Series [9] concerns Mus musculus. In words: Antiinflammatory activity in DBA1 mouse model of collagen-induced inflammation assessed as reduction in rheumatoid arthritis score in paw administered daily via oral gavage for 21 days starting from 21 days post-immunization and measured 3 times every week following booster immunization. The format is functional, organism-based.
The nature of series [10]: AUC in mouse at 40 mg/kg, po. It is filed as ADME, organism-based. The note with it: in vivo.
Series [11] is described as follows: Prodrug conversion in DBA1 mouse assessed as 4-((2R,3R)-l,3-Dihydroxybutan-2-ylamino)-6-phenylpyrrolo [ 1,2-b]pyridazine-3 carboxamide formation at 140 mg/kg, po administered via gavage. It is filed as ADME, organism-based. The following applies: in vivo.
Series [12] can be described thus: Solubility of the compound in water. The format is physicochemical. The following applies: buffer.
Series [13] in a line: Stability in human liver microsomes. The format is ADME, Microsome. In general terms: Microsomes from liver hold many membrane-bound enzymes, among them those of drug oxidation.
Series [14] is described as follows: Time at which plasma concentration stays above in vitro IC50 for inhibition of IL2-induced IFNgamma production in CD3/CD28 antibody-stimulated human whole blood in mouse at 10 mg/kg, po. It is filed as organism-based. The note with it: in vivo.
A short description of series [15]: Octanol-water partition coefficient, log P of the compound at pH 6.5 by HPLC analysis. The format is physicochemical.
Series [16] is described as follows: Cmax in mouse at 10 mg/kg, po. It is filed as ADME, organism-based. Further details: dose 10 mg/kg, route oral. The note with it: in vivo.
Series [17] is described as follows: Solubility of the compound in phosphate buffer using crystalline compound. The format is physicochemical.
A short description of series [18]: Solubility of the compound in 5%EtOH/5%TPGS/90%PEG300 formulation. It is filed as physicochemical.
Series [19] is described as follows: Solubility of the compound in water using amorphous compound. The format is physicochemical. The note with it: buffer.
The nature of series [20]: Stability in mouse liver microsomes. It is filed as ADME, Microsome.
The nature of series [21]: Permeability of the compound by PAMPA. The format is ADME.
Series [22] is described as follows: Stability in rat liver microsomes. The format is ADME, Microsome.
Series [23] can be described thus: Cmax in mouse at 50 mg/kg, po administered as microsuspension formulation. The format is ADME, organism-based. Further details: dose 50 mg/kg, route oral. The note with it: in vivo.
Series [24] relates to Mus musculus. The series can be described thus: Antiinflammatory activity in DBA1 mouse model of collagen-induced inflammation assessed as reduction in rheumatoid arthritis score in paw at 6.6 mg/kg administered daily via oral gavage for 21 days starting from 21 days post-immunization and measured 3 times every week following booster immunization. The format is functional, organism-based.

Sequence of Non-receptor tyrosine-protein kinase TYK2 (P29597 whole entry): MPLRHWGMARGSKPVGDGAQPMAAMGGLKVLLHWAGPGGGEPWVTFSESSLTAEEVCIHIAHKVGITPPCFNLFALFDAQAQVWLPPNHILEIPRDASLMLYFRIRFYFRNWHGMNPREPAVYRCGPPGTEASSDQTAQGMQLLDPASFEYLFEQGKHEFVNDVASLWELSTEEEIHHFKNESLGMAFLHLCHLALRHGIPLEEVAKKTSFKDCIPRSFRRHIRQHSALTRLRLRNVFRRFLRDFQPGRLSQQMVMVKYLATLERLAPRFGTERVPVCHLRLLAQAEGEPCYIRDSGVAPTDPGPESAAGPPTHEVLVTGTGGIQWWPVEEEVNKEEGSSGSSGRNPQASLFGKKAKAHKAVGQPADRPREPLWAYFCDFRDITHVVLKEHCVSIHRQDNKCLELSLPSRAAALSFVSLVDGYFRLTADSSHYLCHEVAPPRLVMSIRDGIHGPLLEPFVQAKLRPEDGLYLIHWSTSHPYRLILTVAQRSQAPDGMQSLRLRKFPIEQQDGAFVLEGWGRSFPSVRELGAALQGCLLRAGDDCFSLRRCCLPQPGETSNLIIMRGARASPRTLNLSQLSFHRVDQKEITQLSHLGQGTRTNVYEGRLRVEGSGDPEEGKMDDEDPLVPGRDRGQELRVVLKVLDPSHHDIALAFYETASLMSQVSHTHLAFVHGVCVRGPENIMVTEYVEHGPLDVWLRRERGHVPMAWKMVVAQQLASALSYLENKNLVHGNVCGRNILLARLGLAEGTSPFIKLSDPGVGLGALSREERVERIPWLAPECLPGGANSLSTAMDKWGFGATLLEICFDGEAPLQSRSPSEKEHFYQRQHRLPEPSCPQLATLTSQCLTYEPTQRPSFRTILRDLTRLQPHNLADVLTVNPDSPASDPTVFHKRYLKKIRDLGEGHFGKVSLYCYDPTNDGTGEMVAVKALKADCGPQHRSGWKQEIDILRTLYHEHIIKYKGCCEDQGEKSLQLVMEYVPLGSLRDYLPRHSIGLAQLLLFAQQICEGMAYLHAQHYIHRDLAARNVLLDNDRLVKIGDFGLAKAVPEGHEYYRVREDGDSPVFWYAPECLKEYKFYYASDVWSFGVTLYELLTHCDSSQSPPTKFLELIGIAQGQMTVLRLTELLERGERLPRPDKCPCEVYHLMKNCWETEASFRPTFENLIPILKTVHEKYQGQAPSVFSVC
Sequence of Tyrosine-protein kinase JAK1 (P23458 whole entry): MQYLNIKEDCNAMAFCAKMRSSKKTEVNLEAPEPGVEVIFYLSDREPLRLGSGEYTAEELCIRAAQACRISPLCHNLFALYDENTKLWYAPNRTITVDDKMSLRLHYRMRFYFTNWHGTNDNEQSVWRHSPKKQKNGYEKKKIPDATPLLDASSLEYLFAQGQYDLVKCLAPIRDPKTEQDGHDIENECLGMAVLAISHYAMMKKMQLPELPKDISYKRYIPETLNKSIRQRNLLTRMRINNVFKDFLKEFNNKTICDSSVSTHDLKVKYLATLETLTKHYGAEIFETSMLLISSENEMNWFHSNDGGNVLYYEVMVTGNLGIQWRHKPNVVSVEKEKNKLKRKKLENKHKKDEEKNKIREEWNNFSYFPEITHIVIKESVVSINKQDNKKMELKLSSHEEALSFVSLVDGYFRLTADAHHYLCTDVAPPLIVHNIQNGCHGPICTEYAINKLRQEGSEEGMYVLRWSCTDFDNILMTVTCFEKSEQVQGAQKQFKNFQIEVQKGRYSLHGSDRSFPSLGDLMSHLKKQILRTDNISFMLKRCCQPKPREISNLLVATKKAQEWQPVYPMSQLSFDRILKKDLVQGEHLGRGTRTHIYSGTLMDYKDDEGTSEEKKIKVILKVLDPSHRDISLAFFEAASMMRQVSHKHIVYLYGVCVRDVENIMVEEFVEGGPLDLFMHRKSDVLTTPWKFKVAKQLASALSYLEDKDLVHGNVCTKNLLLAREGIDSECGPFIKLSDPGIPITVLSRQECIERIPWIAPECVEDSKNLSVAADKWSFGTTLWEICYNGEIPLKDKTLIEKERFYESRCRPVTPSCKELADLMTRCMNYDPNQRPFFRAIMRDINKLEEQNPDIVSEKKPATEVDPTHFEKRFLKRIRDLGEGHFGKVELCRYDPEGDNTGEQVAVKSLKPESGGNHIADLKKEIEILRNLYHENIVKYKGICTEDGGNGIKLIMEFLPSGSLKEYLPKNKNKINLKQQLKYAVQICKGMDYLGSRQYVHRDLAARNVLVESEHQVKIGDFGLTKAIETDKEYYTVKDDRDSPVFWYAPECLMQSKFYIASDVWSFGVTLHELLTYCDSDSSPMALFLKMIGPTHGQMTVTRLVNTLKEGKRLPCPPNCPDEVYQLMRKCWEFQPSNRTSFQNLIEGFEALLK
Sequence of Tyrosine-protein kinase JAK2 (O60674 whole entry): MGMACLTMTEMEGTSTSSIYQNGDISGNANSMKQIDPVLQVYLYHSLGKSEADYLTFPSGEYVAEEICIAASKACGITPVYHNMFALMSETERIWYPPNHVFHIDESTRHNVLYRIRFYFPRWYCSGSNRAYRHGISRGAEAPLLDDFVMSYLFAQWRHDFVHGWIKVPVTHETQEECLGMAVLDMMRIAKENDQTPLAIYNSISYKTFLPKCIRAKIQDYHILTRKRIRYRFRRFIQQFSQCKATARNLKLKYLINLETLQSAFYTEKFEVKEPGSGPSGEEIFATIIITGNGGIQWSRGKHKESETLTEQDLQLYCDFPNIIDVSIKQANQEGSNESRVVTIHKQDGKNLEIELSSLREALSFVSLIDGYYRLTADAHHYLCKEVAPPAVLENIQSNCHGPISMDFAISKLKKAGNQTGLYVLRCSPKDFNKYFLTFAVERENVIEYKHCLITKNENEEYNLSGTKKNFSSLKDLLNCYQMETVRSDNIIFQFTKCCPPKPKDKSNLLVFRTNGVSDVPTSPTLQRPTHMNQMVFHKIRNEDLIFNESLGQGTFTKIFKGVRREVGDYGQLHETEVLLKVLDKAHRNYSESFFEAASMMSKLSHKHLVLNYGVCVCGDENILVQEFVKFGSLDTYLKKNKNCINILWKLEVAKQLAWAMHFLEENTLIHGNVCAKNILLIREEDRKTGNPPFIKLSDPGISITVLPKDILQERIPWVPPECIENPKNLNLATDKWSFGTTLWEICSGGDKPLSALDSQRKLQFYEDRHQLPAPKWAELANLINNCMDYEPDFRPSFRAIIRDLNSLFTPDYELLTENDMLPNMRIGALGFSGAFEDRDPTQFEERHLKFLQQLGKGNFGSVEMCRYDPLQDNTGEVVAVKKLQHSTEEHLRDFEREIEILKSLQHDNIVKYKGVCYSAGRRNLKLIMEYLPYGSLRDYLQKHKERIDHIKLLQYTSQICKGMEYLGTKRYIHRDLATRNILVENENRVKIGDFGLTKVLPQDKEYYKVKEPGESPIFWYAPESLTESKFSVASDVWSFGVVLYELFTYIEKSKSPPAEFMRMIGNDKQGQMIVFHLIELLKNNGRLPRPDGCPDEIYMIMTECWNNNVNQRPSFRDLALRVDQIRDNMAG

For `NC(=O)c1cnn2cc(-c3ccccc3)cc2c1NC1CCCC1`, the IC50 (in general, the point on the concentration scale where inhibition reaches its midpoint) was over 4000 nM with Blood; 5 nM in [1]; 20 nM in series [2]; 13 nM in [5]; 50 nM in series [6]. Also, the solubility (usually the dissolved amount per volume that the medium holds) in series [3] is under 1 µg/mL. Also, in [4], the remaining at 10 min is under 50%.
On to `C[C@@H](O)[C@H](CO)Nc1c(C(N)=O)cnn2cc(-c3ccccc3)cc12`, for which the IC50 in the series with T-cell (Homo sapiens, T-cell) was 1800 nM; in series [1], 180 nM; in series [2], 510 nM; in [5], 110 nM; in [6] it was 1700 nM.
For `COc1ccc(-c2cc3c(NC(CO)[C@H](O)C4CC4)c(C(N)=O)cnn3c2)cn1` (stereo in doubt; 19), the IC50 with Blood amounted to 730 nM; with T-cell (t-cell), 500 nM; in [1], 2 nM; in [2], 130 nM; in series [5] it was 21 nM; in series [6], 45 nM.
`CC(C)(C)CNc1c(C(N)=O)cnn2cc(-c3ccccc3)cc12`: the concentration for half-maximal inhibition (IC50) in the series on Blood is over 4000 nM; in series [1], 8 nM; in [2], 70 nM; in series [5], 33 nM; in series [6], 110 nM. In series [3], the solubility was under 1 µg/mL. Moreover, the remaining at 10 min in series [4] is under 50%.
`COc1ccc(-c2cc3c(NC(CO)CO)c(C(N)=O)cnn3c2)cn1`: the IC50 was determined as 11000 nM in the series on T-cell (Homo sapiens, T-cell); 38 nM in series [1]; 330 nM in series [2]; 200 nM in series [5].
As for `C[C@H](O)[C@H](CO)Nc1c(C(N)=O)cnn2cc(-c3ccccc3)cc12`, the IC50 is 2000 nM in the series with T-cell (Homo sapiens, T-cell); 160 nM in [1]; 1300 nM in series [2]; 180 nM in series [5]; 1800 nM in series [6].
Consider `CC(C)CNc1c(C(N)=O)cnn2cc(-c3ccccc3)cc12`, for which the IC50 in the series with Blood was over 4000 nM; in series [1], 4 nM; in series [2] it was 63 nM; in [5] it was 30 nM; in series [6], 160 nM. The logP (in general, a log measure of how a compound divides between an organic and an aqueous phase) in series [7] came to 3.94. In addition, the solubility in series [3] is under 1 µg/mL. Also, the remaining at 10 min in series [4] was under 50%.
In the case of `COc1ccc(-c2cc3c(N[C@H](CO)CC4CC4)c(C(N)=O)cnn3c2)cn1`, the IC50 in the series with Blood was over 4000 nM; in the series with T-cell (Homo sapiens, T-cell) it was 290 nM; in series [1], 1 nM; in series [2], 120 nM; in series [5] it was 32 nM; in [6], 25 nM.
In the case of `C[C@@H](O)[C@@H](COP(=O)([O-])[O-])Nc1c(C(N)=O)cnn2cc(-c3ccccc3)cc12.[Na+].[Na+]`, the AUC – broadly, concentration integrated over time – worked out at 1 µM·h in [8] and 6 µM·h in [10]. Further, the Activity entry in the series on Mus musculus [9] is “Dose-dependent effect”. For the same compound, in [11], the Drug metabolism entry was “Metabolite_Detected”. The solubility result in series [12] was “Soluble”.
With `C[C@@H](O)[C@@H](CO)Nc1c(C(N)=O)cnn2cc(-c3ccccc3)cc12`, the IC50 in the series with Blood came out at 500 nM; in the series on T-cell (Homo sapiens, T-cell), 70 nM; in [2], 34 nM; in series [5], 5 nM; in series [6] it was 70 nM. In addition, the Stability result in [13], in series [20] and in series [22] was “Stable” each time. In addition, the Time in series [14] worked out at 3 h. Also, the logD (commonly the decadic logarithm of the distribution of all forms, ionised or not, between an organic phase and buffer at a given pH) in series [15] is 2.42. Moreover, the highest concentration (Cmax) – broadly, the peak of the concentration-time curve – in series [16] is over 3000 nM; in series [23], 100 nM. In addition, the solubility entry in series [17], in series [18] and in series [19] was “Insoluble” each time. For the same compound, the permeability entry in series [21] is “Permeable”.
`COc1ccc(-c2cc3c(N[C@H](CO)[C@@H](C)O)c(C(N)=O)cnn3c2)cn1`: the IC50 in the series on T-cell (Homo sapiens, T-cell) stood at 370 nM; in series [1] it was 2 nM; in series [2] it was 27 nM; in series [6] it was 57 nM. This compound yielded a log distribution coefficient (logD) in series [15] of 2.2.
For `C[C@H](O)[C@@H](CO)Nc1c(C(N)=O)cnn2cc(-c3ccccc3)cc12`, the IC50 in the series with T-cell (Homo sapiens, T-cell) is 870 nM; in series [1], 13 nM; in [2], 210 nM; in [5], 38 nM; in [6], 370 nM.
With `CC(C)Nc1c(C(N)=O)cnn2cc(-c3ccccc3)cc12`, the IC50 in the series with Blood is over 4000 nM; in series [1], 15 nM; in series [2] it was 150 nM; in series [5], 40 nM; in series [6], 190 nM. The solubility in series [3] is under 1 µg/mL. In series [4], the remaining at 10 min is under 50%.
Consider `CC(C)CCNc1c(C(N)=O)cnn2cc(-c3ccccc3)cc12`, for which the IC50 with Blood was over 4000 nM; in series [1], 11 nM; in series [2], 160 nM; in series [5] it was 110 nM; in [6], 220 nM. For the same compound, the logP in series [7] turned out to be 5.08. Also, the solubility in [3] was under 1 µg/mL. The remaining at 10 min in series [4] is under 50%.
In the case of `COc1ccc(-c2cc3c(N[C@H](CO)CC(C)C)c(C(N)=O)cnn3c2)cn1`, the half-inhibitory concentration (IC50) was determined as 3900 nM with Blood; 190 nM in the series with T-cell (Homo sapiens, T-cell); 3 nM in [1]; 180 nM in series [2]; 23 nM in series [5]; 30 nM in series [6].
On to `COc1ccc(-c2cc3c(NC(CO)[C@H](O)C4CC4)c(C(N)=O)cnn3c2)cn1` (stereo in doubt; 18), for which the IC50 in the series on T-cell (t-cell) is 4800 nM; in series [1], 100 nM; in series [2], 2000 nM; in [5], 620 nM; in series [6], 1400 nM.
With `C[C@@H]1CCN(C(=O)CC#N)C[C@@H]1N(C)c1ncnc2[nH]ccc12`, the outcome with Mus musculus [24] was Active.
